# US20090099216A1, “NOVEL ADENINE COMPOUND” (priority 2005, published 2009)
# Biological target: T1, Human TLR7 (Homo sapiens, UniProt Q9NYK1)
# T1 construct: expressed in transfected cells; host or cells: HEK293 (hTLR7/seap-293), stably carrying the TLR7 plasmid and the NF-kB-SEAP reporter plasmid
# T1 sequence (Q9NYK1 27-1049): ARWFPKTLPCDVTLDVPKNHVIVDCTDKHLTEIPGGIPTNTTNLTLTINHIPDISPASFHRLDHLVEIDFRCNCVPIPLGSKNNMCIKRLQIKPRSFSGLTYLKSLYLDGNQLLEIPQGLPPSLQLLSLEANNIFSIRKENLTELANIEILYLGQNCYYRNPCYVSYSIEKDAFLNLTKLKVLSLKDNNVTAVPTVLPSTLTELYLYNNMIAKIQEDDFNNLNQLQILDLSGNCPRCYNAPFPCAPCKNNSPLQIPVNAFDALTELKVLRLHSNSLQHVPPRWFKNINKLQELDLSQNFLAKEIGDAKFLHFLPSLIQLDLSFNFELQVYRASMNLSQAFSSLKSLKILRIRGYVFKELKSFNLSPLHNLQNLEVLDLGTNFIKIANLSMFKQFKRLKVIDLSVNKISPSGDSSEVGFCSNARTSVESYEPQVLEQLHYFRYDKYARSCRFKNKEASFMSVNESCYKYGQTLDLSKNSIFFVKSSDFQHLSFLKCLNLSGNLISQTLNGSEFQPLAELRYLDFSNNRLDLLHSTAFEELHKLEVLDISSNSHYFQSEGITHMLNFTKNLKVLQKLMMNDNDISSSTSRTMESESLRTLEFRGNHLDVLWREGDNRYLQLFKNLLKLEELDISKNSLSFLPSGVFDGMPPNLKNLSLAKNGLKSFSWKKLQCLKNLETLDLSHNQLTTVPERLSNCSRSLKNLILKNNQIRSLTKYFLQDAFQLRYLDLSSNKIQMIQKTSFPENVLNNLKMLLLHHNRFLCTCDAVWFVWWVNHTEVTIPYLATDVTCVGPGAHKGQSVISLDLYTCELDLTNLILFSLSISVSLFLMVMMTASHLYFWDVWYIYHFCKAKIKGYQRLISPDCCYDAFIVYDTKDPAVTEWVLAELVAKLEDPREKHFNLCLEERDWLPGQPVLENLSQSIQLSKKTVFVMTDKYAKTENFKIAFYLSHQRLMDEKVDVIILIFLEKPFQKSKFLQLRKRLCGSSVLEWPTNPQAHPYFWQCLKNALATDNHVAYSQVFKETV
# Test: Human TLR7 reporter assay (NF-kB-SEAP) in HEK293 cells
# Type: cell-based
# Conditions: hTLR7/seap-293 HEK293 cells, 20 hours incubation, absorbance 405 nm, read-out: human TLR7 binding activity (EC50)
# Method: Human TLR7 Reporter Assay
# Human TLR7 or rat TLR7 plasmid and reporter plasmid (NF-kB-SEAP) stably-induced HEK293 cells were suspended in DMEM media (10% FBS, 1% NEAA, 10 ug/mL blastocidin S HCl, 100 ug/mL Zeocin), and the suspension was seeded in 90 μl/well on 96 well plate (hTLR^7/seap-293: 20000 cells/well, rTLR7/seap-293: 25000 cells/well).
# To the cells seeded on 96 well plate was added in 10 μl/well a test compound wherein DMSO stock solution (2 μl) was hundredfold diluted with medium (200 μl) (final concentration; 1 nM-10 μM, common ratio 3). The mixture was stirred tapping in the side of the plate, and then incubated for 20 hours in CO2 incubator. To the cells stimulated by a test compound was added a substrate for reporter assay (substrate for SEAP, pNPP) by 50 μl/well. 10 minutes after the addition of substrate, a quenching solution (4N NaOH) was added by 50 μl/well, and the enzymatic reaction was quenched. Top seal A was attached on the plate, and absorbance was measured by microplate reader (405 nm).
row,Compound,EC50 [nM]
1,"CCCCOc1nc(N)c2[nH]c(=O)n(CCN[C@@H](CC(=O)OC)C(=O)OC)c2n1 [Example 6, Dimethyl N-[2-(6-amino-2-butoxy-8-oxo-7,8-dihydro-9H-purin-9-yl)ethyl]-L-aspartate]",881
2,"CCCCOc1nc(N)c2[nH]c(=O)n(CCN[C@@H](CCCCN)C(=O)OC)c2n1 [Example 7, Methyl N^2-[2-(6-amino-2-butoxy-8-oxo-7,8-dihydro-9H-purin-9-yl)ethyl]-L-lysinate]",1710
3,"CCCCOc1nc(N)c2[nH]c(=O)n(CCNCC(=O)OC)c2n1 [Example 1, Methyl N-[2-(6-amino-2-butoxy-7,8-dihydro-8-oxo-9H-purin-9-yl)-ethyl]glycinate]",290
